According to ChEMBL document CHEMBL5104211, “Design and synthesis of bile acid derivatives and their activity against colon cancer” (RSC Med Chem, 2022):

Columns and labels:
HT-29 = experiment: Anticancer activity against human HT-29 cells assessed as inhibition of cell proliferation by MTT assay; type: functional, cell-based
RKO = experiment: Anticancer activity against human RKO cells assessed as inhibition of cell proliferation by MTT assay; type: functional, cell-based
LoVo = experiment: Anticancer activity against human LoVo cells assessed as inhibition of cell proliferation by MTT assay; type: functional, cell-based
Huh-7 = experiment: Anticancer activity against human Huh-7 cells assessed as inhibition of cell proliferation by MTT assay; type: functional, cell-based
MGC-803 = experiment: Anticancer activity against human MGC-803 cells assessed as inhibition of cell proliferation by MTT assay; type: functional, cell-based
SW480 = experiment: Anticancer activity against human SW480 cells assessed as inhibition of cell proliferation by MTT assay; type: functional, cell-based
HCT-116 [1] = experiment: Anticancer activity against human HCT-116 cells assessed as inhibition of cell proliferation by MTT assay; type: functional, cell-based
SK-HEP1 = experiment: Anticancer activity against human SK-HEP1 cells assessed as inhibition of cell proliferation by MTT assay; type: functional, cell-based
A549 = experiment: Anticancer activity against human A549 cells assessed as inhibition of cell proliferation by MTT assay; type: functional, cell-based
[2] = Cytotoxicity against human WI-38 cells assessed as inhibition of cell proliferation by MTT assay; type: toxicity, cell-based
HCT-116 [3] = experiment: Induction of apoptosis in human HCT-116 cells assessed as viable cells at 30 micromol/L incubated for 48 hrs by annexin V-FITC and propidium iodide staining based flow cytometry analysis (reference value: 89.29%); type: functional; conditions: HCT-116, 48 h, dose 30 µmol/L, read-out: Activity
HCT-116 [4] = experiment: Induction of apoptosis in human HCT-116 cells assessed as late apoptotic cells at 30 micromol/L incubated for 48 hrs by annexin V-FITC and propidium iodide staining based flow cytometry analysis (reference value: 7.13%); type: functional; conditions: dose 30 µmol/L, at 30 µM
HCT-116 [5] = experiment: Induction of apoptosis in human HCT-116 cells assessed as early apoptotic cells at 30 micromol/L incubated for 48 hrs by annexin V-FITC and propidium iodide staining based flow cytometry analysis (reference value: 2.69%); type: functional; conditions: dose 30 µmol/L, at 30 µM
HCT-116 [6] = experiment: Induction of apoptosis in human HCT-116 cells assessed as necrotic cells at 30 micromol/L incubated for 48 hrs by annexin V-FITC and propidium iodide staining based flow cytometry analysis (reference value: 0.88%); type: functional; conditions: dose 30 µmol/L, at 30 µM

COc1cc(COC(=O)CC[C@@H](C)[C@H]2CC[C@H]3[C@@H]4[C@H](O)C[C@@H]5C[C@H](O)CC[C@]5(C)[C@H]4CC[C@]23C)cc(OC)c1
IC50 (HT-29): 26 µM
IC50 (RKO): 45.4 µM
IC50 (LoVo): 21.3 µM
IC50 (Huh-7): 63.1 µM
IC50 (MGC-803): 36.6 µM
IC50 (SW480): 37.6 µM
IC50 (HCT-116 [1]): 45 µM
IC50 (SK-HEP1): 65.1 µM
IC50 (A549): 99.6 µM
IC50 [2]: > 200 µM

Cc1ccc(COC(=O)CC[C@@H](C)[C@H]2CC[C@H]3[C@@H]4[C@H](O)C[C@@H]5C[C@H](O)CC[C@]5(C)[C@H]4CC[C@]23C)cc1
IC50 (HT-29): 25.4 µM
IC50 (RKO): 42.1 µM
IC50 (LoVo): 27.4 µM
IC50 (Huh-7): 27.2 µM
IC50 (MGC-803): 37.5 µM
IC50 (SW480): 43.1 µM
IC50 (HCT-116 [1]): 53.7 µM
IC50 (SK-HEP1): 54.9 µM
IC50 (A549): 86.6 µM
IC50 [2]: > 200 µM

C[C@H](CCC(=O)OCc1cccc(O)c1)[C@H]1CC[C@H]2[C@@H]3[C@H](O)C[C@@H]4C[C@H](O)CC[C@]4(C)[C@H]3C[C@H](O)[C@]12C
IC50 (HT-29): 24.3 µM
IC50 (RKO): 47.6 µM
IC50 (LoVo): 28.7 µM
IC50 (Huh-7): 102 µM
IC50 (MGC-803): 54.9 µM
IC50 (SW480): 39.3 µM
IC50 (HCT-116 [1]): 33 µM
IC50 (SK-HEP1): 61.8 µM
IC50 (A549): 47.8 µM
IC50 [2]: > 200 µM

O=c1[nH]cc(F)c(=O)[nH]1 [FLUOROURACIL]
IC50 (HT-29): 17.5 µM
IC50 (RKO): 12.7 µM
viability at 30 µM (HCT-116 [3]): 27.9%
IC50 (Huh-7): 1.06 µM
Activity (HCT-116 [4]): 69.38%
IC50 (MGC-803): 6.06 µM
IC50 (SW480): 21.9 µM
Activity (HCT-116 [5]): 2.13%
IC50 (HCT-116 [1]): 32.3 µM
Activity (HCT-116 [6]): 0.59%
IC50 (SK-HEP1): 12.5 µM
IC50 (A549): 109 µM

C[C@H](CCC(=O)O)[C@H]1CC[C@H]2[C@@H]3[C@H](O)C[C@@H]4C[C@H](O)CC[C@]4(C)[C@H]3C[C@H](O)[C@]12C [CHOLIC ACID]
IC50 (HT-29): > 200 µM
IC50 (RKO): > 200 µM
IC50 (LoVo): > 200 µM
IC50 (Huh-7): > 200 µM
IC50 (MGC-803): > 200 µM
IC50 (SW480): > 200 µM
IC50 (HCT-116 [1]): > 200 µM
IC50 (SK-HEP1): > 200 µM
IC50 (A549): > 200 µM

C[C@H](CCC(=O)O)[C@H]1CC[C@H]2[C@@H]3CC[C@@H]4C[C@H](O)CC[C@]4(C)[C@H]3CC[C@]12C [LITHOCHOLIC ACID]
IC50 (HT-29): > 200 µM
IC50 (RKO): > 200 µM
IC50 (LoVo): > 200 µM
IC50 (Huh-7): > 200 µM
IC50 (MGC-803): > 200 µM
IC50 (SW480): > 200 µM
IC50 (HCT-116 [1]): > 200 µM
IC50 (SK-HEP1): > 200 µM
IC50 (A549): > 200 µM

COC(=O)[C@H](CCSC)NC(=O)CC[C@@H](C)[C@H]1CC[C@H]2[C@@H]3[C@H](O)C[C@@H]4C[C@H](O)CC[C@]4(C)[C@H]3C[C@H](O)[C@]12C
IC50 (HT-29): 127 µM
IC50 (RKO): 97.3 µM
IC50 (LoVo): 51.6 µM
IC50 (Huh-7): 190 µM
IC50 (MGC-803): 96.9 µM
IC50 (SW480): 64.7 µM
IC50 (HCT-116 [1]): 85.2 µM
IC50 (SK-HEP1): 173 µM
IC50 (A549): > 200 µM
IC50 [2]: > 200 µM

C[C@H](CCC(=O)O)[C@H]1CC[C@H]2[C@@H]3[C@@H](O)C[C@@H]4C[C@H](O)CC[C@]4(C)[C@H]3CC[C@]12C [URSODIOL]
IC50 (HT-29): > 200 µM
IC50 (RKO): > 200 µM
IC50 (LoVo): > 200 µM
IC50 (Huh-7): > 200 µM
IC50 (MGC-803): > 200 µM
IC50 (SW480): > 200 µM
IC50 (HCT-116 [1]): > 200 µM
IC50 (SK-HEP1): > 200 µM
IC50 (A549): > 200 µM

CC(=O)Nc1ccc(OC(=O)CC[C@@H](C)[C@H]2CC[C@H]3[C@@H]4[C@H](O)C[C@@H]5C[C@H](O)CC[C@]5(C)[C@H]4C[C@H](O)[C@]23C)cc1
IC50 (HT-29): 53.3 µM
IC50 (RKO): 36.3 µM
IC50 (LoVo): 58 µM
IC50 (Huh-7): 70.4 µM
IC50 (MGC-803): 36.7 µM
IC50 (SW480): 38.7 µM
IC50 (HCT-116 [1]): 54.3 µM
IC50 (SK-HEP1): 41.1 µM
IC50 (A549): 59.4 µM
IC50 [2]: > 200 µM

C[C@H](CCC(=O)OCc1ccc([N+](=O)[O-])cc1)[C@H]1CC[C@H]2[C@@H]3[C@H](O)C[C@@H]4C[C@H](O)CC[C@]4(C)[C@H]3CC[C@]12C
IC50 (HT-29): 29.6 µM
IC50 (RKO): 43.2 µM
IC50 (LoVo): 30.4 µM
IC50 (Huh-7): 44.6 µM
IC50 (MGC-803): 50.6 µM
IC50 (SW480): 44.1 µM
IC50 (HCT-116 [1]): 40.4 µM
IC50 (SK-HEP1): 111 µM
IC50 (A549): 87.2 µM
IC50 [2]: > 200 µM

C[C@H](CCC(=O)O)[C@H]1CC[C@H]2[C@@H]3[C@H](O)C[C@@H]4C[C@H](O)CC[C@]4(C)[C@H]3CC[C@]12C [CHENODIOL]
IC50 (HT-29): > 200 µM
IC50 (RKO): > 200 µM
IC50 (LoVo): > 200 µM
IC50 (Huh-7): > 200 µM
IC50 (MGC-803): > 200 µM
IC50 (SW480): > 200 µM
IC50 (HCT-116 [1]): > 200 µM
IC50 (SK-HEP1): > 200 µM
IC50 (A549): > 200 µM

C[C@H](CCC(=O)OCc1cccc(O)c1)[C@H]1CC[C@H]2[C@@H]3CC[C@@H]4C[C@H](O)CC[C@]4(C)[C@H]3CC[C@]12C
IC50 (HT-29): 173 µM
IC50 (RKO): 150 µM
IC50 (LoVo): 158 µM
IC50 (Huh-7): 185 µM
IC50 (MGC-803): > 200 µM
IC50 (SW480): 183 µM
IC50 (HCT-116 [1]): 142 µM
IC50 (SK-HEP1): 125 µM
IC50 (A549): > 200 µM
IC50 [2]: > 200 µM

C[C@H](CCC(=O)OCc1cccc(O)c1)[C@H]1CC[C@H]2[C@@H]3[C@H](O)C[C@@H]4C[C@H](O)CC[C@]4(C)[C@H]3CC[C@]12C
IC50 (HT-29): 33.6 µM
IC50 (RKO): 128 µM
IC50 (LoVo): 40.9 µM
IC50 (Huh-7): 124 µM
IC50 (MGC-803): 49 µM
IC50 (SW480): 42.8 µM
IC50 (HCT-116 [1]): 42.3 µM
IC50 (SK-HEP1): 99 µM
IC50 (A549): 69.4 µM
IC50 [2]: > 200 µM

C[C@H](CCC(=O)NCc1ccccc1O)[C@H]1CC[C@H]2[C@@H]3[C@H](O)C[C@@H]4C[C@H](O)CC[C@]4(C)[C@H]3C[C@H](O)[C@]12C
IC50 (HT-29): 32.7 µM
IC50 (RKO): 48.5 µM
IC50 (LoVo): 51.1 µM
IC50 (Huh-7): 63.7 µM
IC50 (MGC-803): 42.3 µM
IC50 (SW480): 35.9 µM
IC50 (HCT-116 [1]): 36.3 µM
IC50 (SK-HEP1): 25.4 µM
IC50 (A549): 40.5 µM
IC50 [2]: > 200 µM

C[C@H](CCC(=O)OCc1cccc(O)c1)[C@H]1CC[C@H]2[C@@H]3[C@@H](O)C[C@@H]4C[C@@H](O)CC[C@]4(C)[C@H]3CC[C@]12C
IC50 (HT-29): 58.8 µM
IC50 (RKO): 68.8 µM
IC50 (LoVo): 44.9 µM
IC50 (Huh-7): 152 µM
IC50 (MGC-803): 59.4 µM
IC50 (SW480): 99 µM
IC50 (HCT-116 [1]): 54.2 µM
IC50 (SK-HEP1): 155 µM
IC50 (A549): > 200 µM
IC50 [2]: > 200 µM

CC(=O)Oc1ccc(OC(=O)CC[C@@H](C)[C@H]2CC[C@H]3[C@@H]4[C@H](O)C[C@@H]5C[C@H](O)CC[C@]5(C)[C@H]4CC[C@]23C)cc1
IC50 (HT-29): 56.3 µM
IC50 (RKO): 142 µM
IC50 (LoVo): 76.9 µM
IC50 (Huh-7): 60.7 µM
IC50 (MGC-803): 109 µM
IC50 (SW480): 100 µM
IC50 (HCT-116 [1]): 149 µM
IC50 (SK-HEP1): 85 µM
IC50 (A549): > 200 µM
IC50 [2]: > 200 µM

CC(=O)Oc1ccc(OC(=O)CC[C@@H](C)[C@H]2CC[C@H]3[C@@H]4[C@@H](O)C[C@@H]5C[C@@H](O)CC[C@]5(C)[C@H]4CC[C@]23C)cc1
IC50 (HT-29): 123 µM
IC50 (RKO): 187 µM
IC50 (LoVo): 168 µM
IC50 (Huh-7): 185 µM
IC50 (MGC-803): 111 µM
IC50 (SW480): > 150 µM
IC50 (HCT-116 [1]): 102 µM
IC50 (SK-HEP1): 177 µM
IC50 (A549): 187 µM
IC50 [2]: > 200 µM
